Results reported in US9896441B2 (Lycera Corporation, priority 2014, dated 2018).

Columns and labels:
[1] = target: T1, RORγ-LBD (Homo sapiens, UniProt P51449); assay: RORγ-Ligand Binding Domain (LBD) TR-FRET Assay; assay type: biochemical; settings: for TR-FRET Assay Max Response: maximum response;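 for TR-FRET Assay Max Response: 665/615 nm signal ratio set to 100 without ursolic acid or test compound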
T1 construct: made in house; host or cells: SF9 cells (baculovirus); used as diluted lysate
T1 sequence (P51449 269-508 limits assumed): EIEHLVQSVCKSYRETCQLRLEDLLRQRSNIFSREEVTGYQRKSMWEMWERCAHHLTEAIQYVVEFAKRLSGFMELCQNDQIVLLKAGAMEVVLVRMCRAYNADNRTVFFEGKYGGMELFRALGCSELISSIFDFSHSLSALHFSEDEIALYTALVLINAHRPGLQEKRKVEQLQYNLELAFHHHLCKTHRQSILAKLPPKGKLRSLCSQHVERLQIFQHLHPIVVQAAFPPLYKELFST
Method in brief: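 This TR-FRET coactivator assay pairs baculovirus-expressed His-RORγ-LBD (~3 nM final) with biotin-SRC1 LXXLL peptide at 200 nM final in pH 7.0 Tris/KCl/EDTA/DTT/BSA buffer.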

[2] = target: T2, Gal4-RORγ-LBD (Homo sapiens, UniProt P51449); assay: Gal4-RORγ Luciferase Reporter Assay in HEK-293T Cells; assay type: cell-based; settings: HEK-293 cells, luciferase reporter; for Gal4-RORγ Assay Max Response: maximum response
T2 construct: expressed in transfected cells
T2 sequence (P51449 269-508 limits assumed): T1 sequence (P51449 269-508 limits assumed)
Method in brief: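 HEK-293 cells were co-transfected with Gal4-RORγ-LBD and a Gal4-luciferase reporter, then exposed overnight at 37 °C to compounds with […] ursolic acid present (0.2% DMSO). Luminescence was read with One-Glo after 10 min at RT, untreated signal was set as 100, and Max Response was taken as the upper plateau of a 4-parameter logistic fit.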

EC50 ([1]; RORγ-LBD TR-FRET assay)	EC50 ([2]; in presence of ursolic acid)	EC50 ([1]; RORγ-LBD TR-FRET)	EC50 ([2]; with ursolic acid)	SMILES	TR-FRET Assay Max Response ([1]; RORγ-LBD TR-FRET assay)	Gal4-RORγ Assay Max Response ([2]; in presence of ursolic acid)
< 500 nM	< 500 nM			C/C(=C\c1ccc2c(c1)N(S(=O)(=O)c1cccc(C(F)(F)F)c1)C[C@H](CCN1CCOCC1)O2)c1c(F)cccc1Cl [Example 119A, (S,E)-6-(2-(2-chloro-6-fluorophenyl)prop-1-en-1-yl)-2-(2-morpholinoethyl)-4-((3-(trifluoromethyl)phenyl)sulfonyl)-3,4-dihydro-2H-benzo[b][1,4]oxazine]	**** (a value greater than 200)	** (a value in the range of greater than 90 to 150)
		< 500 nM	500 to 5000 nM	O=C(O)CC[C@H]1CN(S(=O)(=O)c2cc(C(F)(F)F)cnc2OCCCO)c2cc(/C=C/c3c(F)cccc3Cl)ccc2O1 [Example 89FC, (S,E)-3-(6-(2-chloro-6-fluorostyryl)-4-((2-(3-hydroxypropoxy)-5-(trifluoromethyl)pyridin-3-yl)sulfonyl)-3,4-dihydro-2H-benzo[b][1,4]-oxazin-2-yl)propanoic acid]		
		< 500 nM	500 to 5000 nM	O=C(O)CC[C@H]1CN(S(=O)(=O)c2cc(C(F)(F)F)cnc2OCCO)c2cc(CC3CCCCC3)ccc2O1 [Example 95D, (S)-3-(6-(cyclohexylmethyl)-4-((2-(2-hydroxyethoxy)-5-(trifluoromethyl)pyridin-3-yl)sulfonyl)-3,4-dihydro-2H-benzo[b][1,4]oxazin-2-yl)propanoic acid]		
< 500 nM	< 500 nM			C/C(=C\c1ccc2c(c1)N(S(=O)(=O)c1cccc(C(F)(F)F)c1)C[C@H](CCC(=O)N1CC[C@H](C(=O)O)C1)O2)c1c(F)cccc1Cl [Example 129C, (S)-1-(3-((S)-6-((E)-2-(2-chloro-6-fluorophenyl)-prop-1-en-1-yl)-4-((3-(trifluoromethyl)phenyl)sulfonyl)-3,4-dihydro-2H-benzo[b][1,4]oxazin-2-1)propanoyl)pyrrolidine-3-carboxylic acid]	**** (a value greater than 200)	** (a value in the range of greater than 90 to 150)
		< 500 nM	500 to 5000 nM	O=C(O)CC[C@H]1CN(S(=O)(=O)c2cccc(OC(F)F)c2)c2cc(/C=C/c3c(F)cccc3Cl)ccc2O1 [Example 89A, (S,E)-3-(6-(2-chloro-6-fluorostyryl)-4-((3-(difluoromethoxy)phenyl)sulfonyl)-3,4-dihydro-2H-benzo[b][1,4]oxazin-2-yl)propanoic acid]		
		< 500 nM	< 500 nM	CC(C)n1cc(S(=O)(=O)N2C[C@H](CCC(=O)O)Oc3ccc(/C=C/c4c(Cl)cccc4C(F)(F)F)cc32)c(OCCO)n1 [Example 89ED, (S,E)-3-(6-(2-chloro-6-(trifluoromethyl)styryl)-4-((3-(2-hydroxyethoxy)-1-isopropyl-1H-pyrazol-4-yl)sulfonyl)-3,4-dihydro-2H-benzo[b][1,4]oxazin-2-yl)propanoic acid]		
		< 500 nM	< 500 nM	CCOc1nn(CC)cc1S(=O)(=O)N1C[C@H](CCC(=O)O)Oc2ccc(/C=C/c3c(C)cccc3F)cc21 [Example 89AG, (S,E)-3-(4-((3-ethoxy-1-ethyl-1H-pyrazol-4-yl)sulfonyl)-6-(2-fluoro-6-methylstyryl)-3,4-dihydro-2H-benzo[b][1,4]-oxazin-2-yl)propanoic acid]		
< 500 nM	< 500 nM			COc1cc(S(=O)(=O)N2C[C@H](CCNC(C)=O)Oc3ccc(/C=C(\C)c4c(F)cccc4Cl)cc32)ccc1F [Example 116B, (S,E)-N-(2-(6-(2-(2-chloro-6-fluorophenyl)prop-1-en-1-yl)-4-((4-fluoro-3-methoxyphenyl)-sulfonyl)-3,4-dihydro-2H-benzo[b][1,4]oxazin-2-yl)ethyl)acetamide]	*** (a value in the range of greater than 150 to 200)	* (a value in the range of 30 to 90)
< 500 nM	< 500 nM			COc1cc(S(=O)(=O)N2C[C@H](CCNC(=O)[C@H](C)O)Oc3ccc(/C=C(\C)c4c(F)cccc4Cl)cc32)ccc1F [Example 116D, (S)-N-(2-((S)-6-((E)-2-(2-chloro-6-fluorophenyl)prop-1-en-1-yl)-4-((4-fluoro-3-methoxyphenyl)sulfonyl)-3,4-dihydro-2H-benzo[b][1,4]oxazin-2-yl)ethyl)-2-hydroxypropanamide]	*** (a value in the range of greater than 150 to 200)	** (a value in the range of greater than 90 to 150)
		< 500 nM	< 500 nM	COC(=O)CC[C@H]1CN(S(=O)(=O)c2ccc(F)c(C(F)(F)F)c2)c2cc(/C=C(\C)c3c(F)cccc3Cl)ccc2O1 [Example 86B, (S,E)-methyl 3-(6-(2-(2-chloro-6-fluorophenyl)prop-1-en-1-yl)-4-((4-fluoro-3-(trifluoromethyl)-phenyl)sulfonyl)-3,4-dihydro-2H-benzo[b][1,4]oxazin-2-yl)propanoate]		

Second part, the molecule before the results:

SMILES	EC50 ([1]; RORγ-LBD TR-FRET assay)	EC50 ([2]; in presence of ursolic acid)	EC50 ([1]; RORγ-LBD TR-FRET)	EC50 ([2]; with ursolic acid)	TR-FRET Assay Max Response ([1]; RORγ-LBD TR-FRET assay)	Gal4-RORγ Assay Max Response ([2]; in presence of ursolic acid)
COC(=O)CC[C@H]1CN(S(=O)(=O)c2cccc(C(F)(F)F)c2)c2cc(/C=C(\C)c3c(F)cccc3Cl)c(Cl)cc2O1 [Example 45, (S,E)-Methyl 3-(7-chloro-6-(2-(2-chloro-6-fluorophenyl)prop-1-en-1-yl)-4-((3-(trifluoromethyl)phenyl)sulfonyl)-3,4-dihydro-2H-benzo[b][1,4]oxazin-2-yl)propanoate]			< 500 nM	500 to 5000 nM		
O=C(O)CC[C@H]1CN(S(=O)(=O)c2cccc(C(F)F)c2)c2cc(/C=C/c3c(Cl)cccc3C(F)(F)F)ccc2O1 [Example 82, (S,E)-3-(6-(2-Chloro-6-(trifluoromethyl)styryl)-4-((3-(difluoromethyl)phenyl)sulfonyl)-3,4-dihydro-2H-benzo[b][1,4]oxazin-2-yl)propanoic acid]			< 500 nM	< 500 nM		
COc1cc(S(=O)(=O)N2c3cc(/C=C(\C)c4c(F)cccc4Cl)ccc3O[C@@H](CNC(C)=O)[C@H]2C)ccc1F [Example 137]	< 500 nM	< 500 nM			**** (a value greater than 200)	** (a value in the range of greater than 90 to 150)
COC(=O)CC[C@H]1CN(S(=O)(=O)c2cncc(C(F)(F)F)c2)c2cc(/C=C(\C)c3c(F)cccc3Cl)ccc2O1 [Example 74, Methyl (S,E)-3-(6-(2-(2-chloro-6-fluorophenyl)prop-1-en-1-yl)-4-((5-(trifluoromethyl)pyridin-3-yl)sulfonyl)-3,4-dihydro-2H-benzo[b][1,4]oxazin-2-yl)propanoate]			< 500 nM	500 to 5000 nM		
C/C(=C\c1ccc2c(c1)N(S(=O)(=O)c1cccc(C(F)(F)F)c1)C[C@H](CCC(=O)N1CCC(C(=O)[O-])CC1)O2)c1c(F)cccc1Cl.[Na+] [Example 128, Sodium Salt of (S,E)-1-(3-(6-(2-(2-Chloro-6-fluorophenyl)prop-1-en-1-yl)-4-((3-(trifluoromethyl)phenyl)sulfonyl)-3,4-dihydro-2H-benzo[b][1,4]oxazin-2-yl)propanoyl)piperidine-4-carboxylic acid]	< 500 nM	< 500 nM			**** (a value greater than 200)	** (a value in the range of greater than 90 to 150)
CCn1cc(S(=O)(=O)N2C[C@H](CCC(=O)O)Oc3ccc(/C=C(\C)c4c(F)cccc4Cl)cc32)c(OCCO)n1 [Example 80, (S,E)-3-(6-(2-(2-Chloro-6-fluorophenyl)prop-1-en-1-yl)-4-((1-ethyl-3-(2-hydroxyethoxy)-1H-pyrazol-4-yl)sulfonyl)-3,4-dihydro-2H-benzo[b][1,4]oxazin-2-yl)propanoic acid]			< 500 nM	500 to 5000 nM		
COc1cc(S(=O)(=O)N2C[C@H](CNC(=O)c3ccc(C(=O)O)cc3)Oc3ccc(/C=C(\C)c4c(F)cccc4Cl)cc32)ccc1F [Example 134, (S,E)-4-(((6-(2-(2-Chloro-6-fluorophenyl)prop-1-en-1-yl)-4-((4-fluoro-3-methoxyphenyl)sulfonyl)-3,4-dihydro-2H-benzo[b][1,4]oxazin-2-yl)methyl)carbamoyl)benzoic acid]	< 500 nM	< 500 nM			**** (a value greater than 200)	*** (a value in the range of greater than 150 to 200)
CC(=O)NCC[C@H]1CN(S(=O)(=O)c2cccc(C(F)(F)F)c2)c2cc(/C=C(\C)c3c(F)cccc3Cl)ccc2O1 [Example 112, (S,E)-N-(2-(6-(2-(2-Chloro-6-fluorophenyl)prop-1-en-1-yl)-4-((3-(trifluoromethyl)phenyl)sulfonyl)-3,4-dihydro-2H-benzo[b][1,4]oxazin-2-yl)ethyl)acetamide]	< 500 nM	< 500 nM			*** (a value in the range of greater than 150 to 200)	** (a value in the range of greater than 90 to 150)
